Reference: patent US7468376B2, “Pyrazolopyridine derivates” (Palau Pharma, S.A., priority 2003, dated 2008)

tested on: TNF-α release induced by LPS in human peripheral blood mononuclear cells; assay: Test 2: Inhibition of TNF-α release induced by LPS in human peripheral blood mononuclear cells; format: cell-based; settings: Homo sapiens, PBMC, test product at 0.1 μM, LPS 400 ng/mL, 19 h, TNF-α in supernatant by ELISA
Procedure: Test 2: Inhibition of TNF-α Release Induced by LPS in Human Peripheral Blood Mononuclear Cells
To obtain the mononuclear cells: heparinized venous blood, obtained from healthy volunteers, is diluted with an equal volume of saline phosphate buffer without calcium or magnesium. Aliquots of 30 mL of the mixture are transferred to 50 mL centrifuge tubes containing 15 mL of Ficoll-Hypaque (1.077 g/mL). The tubes are centrifuged at 1200×g for 20 min at room temperature without braking. Approximately two-thirds of the band of platelets lying above the mononuclear cells is removed with a pipette. The mononuclear cells are carefully transferred to a 50 mL tube, washed twice with saline phosphate buffer, centrifuged at 300×g for 10 min at room temperature and resuspended in RPMI supplemented with 1% inactivated fetal bovine serum at a cell density of 2×10^6 cells/mL.
Inhibition of TNF-α release: 100 μL of mononuclear cells (2×10^6 cells/mL) are incubated on 96-well plates with 50 μL of the test product (final concentration, 0.001-10 μM) and 50 μL LPS (E. coli 055B5, Sigma) at a final concentration of 400 ng/mL for 19 h at 37° C. in an atmosphere with CO2 at 5%. The amount of TNF-α released in the supernatant is quantified using a commercial ELISA kit (Biosource International).

Q: With Fc1ccc(-c2nc3[nH]ncc3c(-c3cc[nH]n3)c2-c2ccncc2)cc1 [Example 217, 6-(4-Fluorophenyl)-4-(1H-pyrazol-3-yl)-5-(4-pyridyl)-1H-pyrazolo[3,4-b]pyridine] as the compound, how does the inhibition at 0.1 µM read?
A: 53.8%

Q: Which inhibition at 0.1 µM does the source give for Cc1n[nH]c2nc(-c3ccc(F)cc3)c(-c3ccnc(N[C@@H](C)c4ccccc4)n3)cc12 [Example 279, (1S)-N-(1-Phenylethyl)-[4-[6-(4-fluorophenyl)-3-methyl-1H-pyrazolo[3,4-b]pyridin-5-yl]pyrimidin-2-yl]amine] here?
A: 100%

Q: How did the inhibition at 0.1 µM turn out when Cc1n[nH]c2nc(-c3ccc(F)cc3)c(-c3ccncc3)c(-c3ccc(F)cc3)c12 [Example 4, 4,6-Bis(4-fluorophenyl)-3-methyl-5-(4-pyridyl)-1H-pyrazolo[3,4-b]pyridine] was run?
A: 68.4%

Q: Fc1ccc(-c2nc3[nH]ncc3c(-c3ccc(F)cc3)c2-c2ccncc2)cc1 [Example 1, 4,6-Bis(4-fluorophenyl)-5-(4-pyridyl)-1H-pyrazolo[3,4-b]pyridine] was tested. Which inhibition at 0.1 µM did it give?
A: 57.5%

Q: With Cn1cc2c(-c3ccc(F)cc3)c(-c3ccnc(Nc4ccc(S(N)(=O)=O)cc4)c3)c(-c3ccc(F)cc3)nc2n1 [Example 214, 4-[4-[4,6-Bis(4-fluorophenyl)-2-methylpyrazolo[3,4-b]pyridin-5-yl]pyridin-2-ylamino]benzenesulfonamide] as the compound, how does the inhibition at 0.1 µM read?
A: 71.1%

Q: How did the inhibition at 0.1 µM turn out when CCNc1nccc(-c2cc3cn[nH]c3nc2-c2cccc(C(F)(F)F)c2)n1 [Example 289, N-Ethyl-[4-[6-(3-trifluoromethyl-phenyl)-1H-pyrazolo[3,4-b]pyridin-5-yl]pyrimidin-2-yl]amine] was run?
A: 51.3%

Q: How did the inhibition at 0.1 µM turn out when OCCCn1cc2c(-c3ccc(F)cc3)c(-c3ccnc(NCC4CC4)n3)c(-c3ccc(F)cc3)nc2n1 [Example 213, 3-[5-[2-[(Cyclopropylmethyl)amino]-pyrimidin-4-yl]-4,6-bis(4-fluorophenyl)pyrazolo[3,4-b]pyridin-2-yl]propan-1-ol] was run?
A: 68.1%

Q: How did the inhibition at 0.1 µM turn out when C[S+]([O-])c1ccc(Cn2cc3c(-c4ccc(F)cc4)c(-c4ccncc4)c(-c4ccc(F)cc4)nc3n2)cc1 (stereo not shown) [Example 59, 4,6-Bis(4-fluorophenyl)-2-(4-methylsulfinylbenzyl)-5-(4-pyridyl)pyrazolo[3,4-b]pyridine] was run?
A: 60%

Q: How did the inhibition at 0.1 µM turn out when CC(=O)N1CCN(CCn2cc3c(-c4ccc(F)cc4)c(-c4ccncc4)c(-c4ccc(F)cc4)nc3n2)CC1 [Example 136, 1-[4-[2-[4,6-Bis(4-fluorophenyl)-5-(4-pyridyl)pyrazolo[3,4-b]pyridin-2-yl]ethyl]piperazin-1-yl]ethanone] was run?
A: 67%

Q: How did the inhibition at 0.1 µM turn out when OCCNCCn1cc2c(-c3ccccc3)c(-c3ccncc3)c(-c3ccccc3)nc2n1 [Example 232, 2-[2-(4,6-Diphenyl-5-(4-pyridyl)pyrazolo[3,4-b]pyridin-2-yl)ethylamino]ethanol] was run?
A: 67.9%

Q: How did the inhibition at 0.1 µM turn out when CN(C)C(=O)Cn1cc2c(-c3ccc(F)cc3)c(-c3ccncc3)c(-c3ccc(F)cc3)nc2n1 [Example 80, 2-[4,6-Bis(4-fluorophenyl)-5-(4-pyridyl)pyrazolo[3,4-b]pyridin-2-yl]-N,N-dimethylacetamide] was run?
A: 69.3%

Q: Fc1ccc(-c2nc3nn(C4CCNCC4)cc3cc2-c2ccncc2)cc1 [Example 121, 6-(4-Fluorophenyl)-2-(4-piperidyl)-5-(4-pyridyl)pyrazolo[3,4-b]pyridine] was tested. Which inhibition at 0.1 µM did it give?
A: 52.1%

Q: How did the inhibition at 0.1 µM turn out when Cn1cc2c(-c3ccco3)c(-c3ccncc3)c(-c3ccc(F)cc3)nc2n1 [Example 183, 6-(4-Fluorophenyl)-4-(2-furyl)-2-methyl-5-(4-pyridyl)pyrazolo[3,4-b]pyridine] was run?
A: 66.7%

Q: How did the inhibition at 0.1 µM turn out when C[S+]([O-])c1ccc(-n2cc3c(-c4ccc(F)cc4)c(-c4ccncc4)c(-c4ccc(F)cc4)nc3n2)cc1 (stereo not shown) [Example 56, 4,6-Bis(4-fluorophenyl)-2-(4-methylsulfinylphenyl)-5-(4-pyridyl)pyrazolo[3,4-b]pyridine] was run?
A: 58.7%

Q: For CNCCCn1cc2c(-c3ccc(F)cc3)c(-c3ccncc3)c(-c3ccc(F)cc3)nc2n1 [Example 78, N-Methyl-[3-[4,6-bis(4-fluorophenyl)-5-(4-pyridyl)pyrazolo[3,4-b]pyridin-2-yl]propyl]amine], which inhibition at 0.1 µM is on record?
A: 73.3%

Q: C[C@H](Nc1nccc(-c2cc3cn[nH]c3nc2-c2cccc(C(F)(F)F)c2)n1)c1ccccc1 [Example 128, (1S)-N-(1-Phenylethyl)-[4-[6-[3-(trifluoromethyl)phenyl]-1H-pyrazolo[3,4-b]pyridin-5-yl]pyrimidin-2-yl]amine] was tested. Which inhibition at 0.1 µM did it give?
A: 82%

Q: OCCn1cc2cc(-c3ccnc(NCC4CC4)n3)c(-c3ccc(F)cc3)nc2n1 [Example 211, 2-[5-[2-[(Cyclopropylmethyl)-amino]pyrimidin-4-yl]-6-(4-fluorophenyl)pyrazolo[3,4-b]pyridin-2-yl]ethanol] was tested. Which inhibition at 0.1 µM did it give?
A: 70.6%

Q: O=C(CNCCO)NCCn1cc2c(-c3ccc(F)cc3)c(-c3ccncc3)c(-c3ccc(F)cc3)nc2n1 [Example 250, N-[2-[4,6-Bis(4-fluorophenyl)-5-(4-pyridyl)pyrazolo[3,4-b]pyridin-2-yl]ethyl]-2-(2-hydroxyethylamino)acetamide] was tested. Which inhibition at 0.1 µM did it give?
A: 67%

Q: Which inhibition at 0.1 µM does the source give for Cn1cnc(-c2c(-c3ccncc3)c(-c3ccc(F)cc3)nc3nn(C)cc23)c1 [Example 184, 6-(4-Fluorophenyl)-2-methyl-4-(1-methyl-1H-imidazol-4-yl)-5-(4-pyridyl)pyrazolo[3,4-b]pyridine] here?
A: 71.2%

Q: Fc1ccc(-c2nc3nn(C4CCNCC4)cc3c(-c3ccc(F)cc3)c2-c2ccncc2)cc1 [Example 36, 4,6-Bis(4-fluorophenyl)-2-(4-piperidyl)-5-(4-pyridyl)pyrazolo[3,4-b]pyridine] was tested. Which inhibition at 0.1 µM did it give?
A: 92%

Q: CCn1cc2c(-c3ccc(F)cc3)c(-c3ccncc3)c(-c3ccc(F)cc3)nc2n1 [Example 6, 2-Ethyl-4,6-bis(4-fluorophenyl)-5-(4-pyridyl)pyrazolo[3,4-b]pyridine] was tested. Which inhibition at 0.1 µM did it give?
A: 81.4%

Q: For FC(F)(F)c1cccc(-c2nc3[nH]ncc3cc2-c2ccnc(NCc3ccccc3)n2)c1 [Example 290, N-Benzyl-[4-[6-(3-trifluoromethyl-phenyl)-1H-pyrazolo[3,4-b]pyridin-5-yl]pyrimidin-2-yl]amine], which inhibition at 0.1 µM is on record?
A: 65.8%

Q: How did the inhibition at 0.1 µM turn out when OCCn1cc2c(-c3ccccc3)c(-c3ccncc3)c(-c3ccccc3)nc2n1 [Example 196, 2-[4,6-Diphenyl-5-(4-pyridyl)pyrazolo-[3,4-b]pyridin-2-yl]ethanol] was run?
A: 70.2%

Q: How did the inhibition at 0.1 µM turn out when Oc1ccc(-c2c(-c3ccncc3)c(-c3ccc(F)cc3)nc3[nH]ncc23)cc1 [Example 72, 4-[6-(4-Fluorophenyl)-5-(4-pyridyl)-1H-pyrazolo[3,4-b]pyridin-4-yl]phenol] was run?
A: 52.7%

Q: With OCCCNc1nccc(-c2cc3cn[nH]c3nc2-c2cccc(C(F)(F)F)c2)n1 [Example 287, 3-[4-[6-(3-Trifluoromethylphenyl)-1H-pyrazolo[3,4-b]pyridin-5-yl]pyrimidin-2-ylamino]propan-1-ol] as the compound, how does the inhibition at 0.1 µM read?
A: 71.2%

Q: How did the inhibition at 0.1 µM turn out when CC(=O)NCCCn1cc2c(-c3ccc(F)cc3)c(-c3ccncc3)c(-c3ccc(F)cc3)nc2n1 [Example 240, N-[3-[4,6-Bis(4-fluorophenyl)-5-(4-pyridyl)pyrazolo[3,4-b]pyridin-2-yl]propyl]acetamide] was run?
A: 58.4%

Q: With Fc1ccc(-c2nc3[nH]nc(Cl)c3c(-c3ccc(F)cc3)c2-c2ccncc2)cc1 [Example 63, 3-Chloro-4,6-bis(4-fluorophenyl)-5-(4-pyridyl)-1H-pyrazolo[3,4-b]pyridine] as the compound, how does the inhibition at 0.1 µM read?
A: 53.2%

Q: With Fc1ccc(-c2nc3nn(CCN4CCOCC4)cc3c(-c3ccc(F)cc3)c2-c2ccncc2)cc1 [Example 30, 4,6-Bis(4-fluorophenyl)-2-[2-(morpholin-4-yl)ethyl]-5-(4-pyridyl)pyrazolo[3,4-b]pyridine] as the compound, how does the inhibition at 0.1 µM read?
A: 83.6%

Q: How did the inhibition at 0.1 µM turn out when CC(=O)Nc1n[nH]c2nc(-c3ccc(F)cc3)c(-c3ccnc(NCC4CC4)n3)cc12 [Example 268, N-[5-[2-[(Cyclopropylmethyl)amino]pyrimidin-4-yl]-6-(4-fluorophenyl)-1H-pyrazolo[3,4-b]pyridin-3-yl]acetamide] was run?
A: 69.1%

Q: Which inhibition at 0.1 µM does the source give for Cn1cc2c(-c3ccccc3)c(-c3ccncc3)c(-c3ccccc3)nc2n1 [Example 22, 2-Methyl-4,6-diphenyl-5-(4-pyridyl)pyrazolo[3,4-b]pyridine] here?
A: 56.5%

Q: With C[C@H](Nc1nccc(-c2cc3cn(CCCO)nc3nc2-c2cccc(C(F)(F)F)c2)n1)c1ccccc1 [Example 209, (1S)-3-[5-[2-(1-Phenylethylamino)-pyrimidin-4-yl]-6-(3-trifluoromethylphenyl)pyrazolo[3,4-b]pyridin-2-yl]propan-1-ol] as the compound, how does the inhibition at 0.1 µM read?
A: 84.2%

same assay, conditions: test product at 0.1 μM, LPS 400 ng/mL, 19 h, TNF-α in supernatant by ELISA

Q: How did the “% Inhibition at 0.1 μM” value turn out when Cn1cc2c(-c3ccc(Br)s3)c(-c3ccncc3)c(-c3ccc(F)cc3)nc2n1 [Example 188, 4-(5-Bromothien-2-yl)-6-(4-fluoro-phenyl)-2-methyl-5-(4-pyridyl)-1H-pyrazolo[3,4-b]pyridine] was run?
A: 73.2%

Q: For “6-(4-Fluorophenyl)-4-methyl-5-(2-methylsulfanylpyrimidin-4-yl)-1H-pyrazolo[3,4-b]pyridine [Example 237]”, which “% Inhibition at 0.1 μM” value is on record?
A: 53.4%

Q: OCCCn1cc2c(-c3ccc(F)cc3)c(-c3ccncc3)c(-c3ccc(F)cc3)nc2n1 [Example 18, 3-[4,6-Bis(4-fluorophenyl)-5-(4-pyridyl)pyrazolo[3,4-b]pirridin-2-yl]propan-1-ol] was tested. Which “% Inhibition at 0.1 μM” value did it give?
A: 82.6%
